In patent publication EP3771715A1, “CRYSTALLINE FORMS OF BARICITINIB” (Zaklady Farmaceutyczne "Polpharma" S.A., priority 2019, dated 2021):
Blank lines part the entries; values can stand above or below the compound they belong to.

Columns and labels:
Assay type in all cases: physicochemical
[1] = Crystalline stability against humidity (XRPD); settings: no conversion into another crystalline form by XRPD
Procedure: Powder X-ray diffraction was performed with a Rigaku MiniFlex 600 diffractometer with Bragg-Brentano geometry CuKa radiation and D/teX Ultra Detector. The powder X-ray diffraction patterns were recorded at a tube voltage of 40kV and a tube current of 15 mA, applying a step size of 0.01° and speed 6.0°/min with the angular range 3-36° at ambient conditions.
A test for crystalline stability against humidity can be performed as follows: The sample is exposed to a relative humidity of 75% (±5%) at 40°C (±2°C) for 4 weeks. The expression "crystalline stability" means that no conversion into another crystalline form occurs, as determined by XRPD.
The equilibrium relative humidity of a sample is measured by determining the relative humidity in % in the air above a test sample, after establishment of a humidity equilibrium in a closed/open system at a constant temperature.
A test for crystalline stability against humidity has been performed as follows: The sample is exposed to a relative humidity of 75% (±5%) at 40°C(±2°C) for 4 weeks. The expression "crystalline stability" means that no conversion into another crystalline form occurs, as determined by XRPD.

[2] = Chemical stability under accelerated ICH storage conditions (HPLC); settings: for Impurities (HPLC % a/a) RRT 1.30 / Impurities (HPLC % a/a) RRT 1.41 / Impurities (HPLC % a/a) RRT 1.40 / Impurities (HPLC % a/a) RRT 1.70 / Impurities (HPLC % a/a) RRT 2.20: 40°C, 75 ± 5% RH
Procedure: Purity and assay analysis was carried out using High Performance Liquid Chromatograph equipped with PDA detector. The analysis was conducted using Octadecyl silane (ODA or C18) chemically bonded to porous silica column, at a temperature of 40°C. The mobile phases was acetonitrile and 0.1% (v/v) ortho-phosphoric acid in water used in gradient.
Chemical stability study of the new crystalline forms of baricitinib i.e. PPH form I and PPH form II was performed under accelerated ICH storage conditions (40°C, 75±5% relative humidity). Samples were taken periodically (0 (start), after 1, 2, and 4 weeks) and analyzed by HPLC. Table 4 : HPLC purity of PPH form I of baricitinib

[3] = Hygroscopicity (statement, no method described)

Crystalline stability study 40°C, 75 ± 5% RH After 1 week ([1]; after 1 week): Stable | Crystalline stability study 40°C, 75 ± 5% RH After 4 weeks [1]: Stable | Impurities (HPLC % a/a) RRT 1.30 ([2]; week 0): 0.01 % a/a | Impurities (HPLC % a/a) RRT 1.41 ([2]; week 0): 0.03 % a/a | Impurities (HPLC % a/a) RRT 1.30 ([2]; week 1): 0.01 % a/a | Impurities (HPLC % a/a) RRT 1.41 ([2]; week 1): 0.03 % a/a | Impurities (HPLC % a/a) RRT 1.30 ([2]; week 2): 0.01 % a/a | Impurities (HPLC % a/a) RRT 1.41 ([2]; week 2): 0.03 % a/a | Impurities (HPLC % a/a) RRT 1.30 ([2]; week 4): 0.01 % a/a | Impurities (HPLC % a/a) RRT 1.41 ([2]; week 4): 0.03 % a/a | Chemical stability (HPLC results) ([2]; during 0, 1, 2 and 4 weeks at 40°C, 75 ± 5% relative humidity): stable | Hygroscopicity [3]: substantially non-hygroscopic
Compound: CCS(=O)(=O)N1CC(CC#N)(n2cc(-c3ncnc4[nH]ccc34)cn2)C1 [PPH form I, {1-(Ethylsulfonyl)-3-[4-(7H-pyrrolo[2,3-d]pyrimidin-4-yl)-1H-pyrazol-1-yl]-3-azetidinyl}acetonitrile]

Crystalline stability study 40°C, 75 ± 5% RH After 4 weeks ([1]; listed as PPH form II (Example 4)): Stable | Crystalline stability study 40°C, 75 ± 5% RH After 4 weeks ([1]; listed as PPH form II of baricitinib): stable | Impurities (HPLC % a/a) RRT 1.40 ([2]; week 0): 0.03 % a/a | Impurities (HPLC % a/a) RRT 1.70 ([2]; week 0): 0.17 % a/a | Impurities (HPLC % a/a) RRT 2.20 ([2]; week 0): 0.15 % a/a | Impurities (HPLC % a/a) RRT 1.40 ([2]; week 1): 0.03 % a/a | Impurities (HPLC % a/a) RRT 1.70 ([2]; week 1): 0.17 % a/a | Impurities (HPLC % a/a) RRT 2.20 ([2]; week 1): 0.15 % a/a | Impurities (HPLC % a/a) RRT 1.40 ([2]; week 2): 0.03 % a/a | Impurities (HPLC % a/a) RRT 1.70 ([2]; week 2): 0.17 % a/a | Impurities (HPLC % a/a) RRT 2.20 ([2]; week 2): 0.15 % a/a | Impurities (HPLC % a/a) RRT 1.40 ([2]; week 4): 0.03 % a/a | Impurities (HPLC % a/a) RRT 1.70 ([2]; week 4): 0.17 % a/a | Impurities (HPLC % a/a) RRT 2.20 ([2]; week 4): 0.15 % a/a
Compound: CCS(=O)(=O)N1CC(CC#N)(n2cc(-c3ncnc4[nH]ccc34)cn2)C1 [PPH form II, {1-(Ethylsulfonyl)-3-[4-(7H-pyrrolo[2,3-d]pyrimidin-4-yl)-1H-pyrazol-1-yl]-3-azetidinyl}acetonitrile]
